Counter-ions that a name gives are not always drawn.

The target of this assay is MGAT2 Human (Homo sapiens (Human), UniProt Q3SYC2). In words: MGAT2 Human IC50. The assay is classed as biochemical.
MGAT2 Human, sequence (Q3SYC2 whole entry): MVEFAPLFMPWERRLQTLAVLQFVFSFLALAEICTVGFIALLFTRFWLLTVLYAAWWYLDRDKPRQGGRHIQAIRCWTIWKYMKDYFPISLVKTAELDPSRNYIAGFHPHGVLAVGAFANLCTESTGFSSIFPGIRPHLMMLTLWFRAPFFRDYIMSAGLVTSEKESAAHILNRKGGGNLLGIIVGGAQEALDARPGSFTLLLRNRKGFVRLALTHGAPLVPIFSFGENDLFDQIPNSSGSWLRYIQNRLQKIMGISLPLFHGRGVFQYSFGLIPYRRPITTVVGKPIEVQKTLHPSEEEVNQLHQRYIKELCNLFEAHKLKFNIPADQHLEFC
Molecule `COCCOc1ccc(C(=O)N2CCc3ccc(S(=O)(=O)Nc4noc(C(C)(C)C)c4C)cc3C2)cn1` [Example 30, N-(5-(tert-butyl)-4-methylisoxazol-3-yl)-2-(6-(2-methoxyethoxy)nicotinoyl)-1,2,3,4-tetrahydroisoquinoline-7-sulfonamide] yielded an IC50 of 31 nM.
The molecule `COCCOc1ccc([C@@H](C)N2CCc3ccc(S(=O)(=O)Nc4cc(C(C)(C)C)on4)cc3C2)cn1` [Example 31, 7-(N-(5-(tert-butyl)isoxazol-3-yl)sulfamoyl)-2-((R)-1-(6-(2-methoxyethoxy)pyridin-3-yl)ethyl)-1,2,3,4-tetrahydroisoquinolin-2-ium 2,2,2-trifluoroacetate] returned an IC50 of 17.2 nM.
As to `C[C@H](c1ccc(OCC(F)(F)F)nc1)N1CCc2ccc(S(=O)(=O)Nc3noc(C(C)(C)C)c3CO)cc2C1` [Example 32, 7-(N-(5-(tert-butyl)-4-(hydroxymethyl)isoxazol-3-yl)sulfamoyl)-2-((R)-1-(6-(2,2,2-trifluoroethoxy)pyridin-3-yl)ethyl)-1,2,3,4-tetrahydroisoquinolin-2-ium 2,2,2-trifluoroacetate], the IC50 was 19.8 nM.
In the case of `CCOC(=O)c1c(NS(=O)(=O)c2ccc3c(c2)CN([C@H](C)c2cc(F)cc(F)c2)CC3)noc1C(C)(C)C` [Example 33, (R)-ethyl 5-(tert-butyl)-3-(2-(1-(3,5-difluorophenyl)ethyl)-1,2,3,4-tetrahydroisoquinoline-7-sulfonamido)isoxazole-4-carboxylate] it was 3.7 nM; in that of `CNC(=O)c1c(NS(=O)(=O)c2ccc3c(c2)CN([C@H](C)c2cc(F)cc(F)c2)CC3)noc1C(C)(C)C` [Example 34, (R)-5-(tert-butyl)-3-(2-(1-(3,5-difluorophenyl)ethyl)-1,2,3,4-tetrahydroisoquinoline-7-sulfonamido)-N-methylisoxazole-4-carboxamide], 6.2 nM; in that of `CCOc1cnc([C@@H](C)N2CCc3ccc(S(=O)(=O)Nc4noc(C(C)(C)C)c4Cl)cc3C2)cn1` [Example 35, (R)—N-(5-(tert-Butyl)-4-chloroisoxazol-3-yl)-2-(1-(5-ethoxypyrazin-2-yl)ethyl)-1,2,3,4-tetrahydroisoquinoline-7-sulfonamide], 8.3 nM.
In the case of `CCOc1cnc([C@@H](C)N2CCc3ccc(S(=O)(=O)Nc4noc(C(C)(C)C)c4C)cc3C2)cn1` [Example 36, (R)—N-(5-(tert-butyl)-4-methylisoxazol-3-yl)-2-(1-(5-ethoxypyrazin-2-yl)ethyl)-1,2,3,4-tetrahydroisoquinoline-7-sulfonamide] it was 3.5 nM.
In the case of `CCOc1cnc([C@@H](C)N2CCc3ccc(S(=O)(=O)Nc4noc(-c5ccccc5)n4)cc3C2)cn1` [Example 37] it was 11.5 nM; in that of `CCCc1cnc(NS(=O)(=O)c2ccc3c(c2)CN([C@H](C)c2cc(F)cc(F)c2)CC3)cn1` [Example 38, (R)-2-(1-(3,5-difluorophenyl)ethyl)-N-(5-propylpyrazin-2-yl)-1,2,3,4-tetrahydroisoquinoline-7-sulfonamide], 6 nM; in that of `CCCc1c(NS(=O)(=O)c2ccc3c(c2)CN(Cc2ccc(CC)nc2)CC3)noc1C(C)(C)C` [Example 39, N-(5-(tert-butyl)-4-propylisoxazol-3-yl)-2-((6-ethylpyridin-3-yl)methyl)-1,2,3,4-tetrahydroisoquinoline-7-sulfonamide], 11 nM.
`CCc1ccc(CN2CCc3ccc(S(=O)(=O)Nc4noc(C(C)(C)C)c4CC)cc3C2)cn1` [Example 40, N-(5-(tert-butyl)-4-ethylisoxazol-3-yl)-2-((6-ethylpyridin-3-yl)methyl)-1,2,3,4-tetrahydroisoquinoline-7-sulfonamide] showed a half-maximal inhibitory concentration (IC50) of 15 nM. This IC50 and that of the molecule before are within 1.5-fold of each other.
For `CCCc1ccc(CN2CCc3ccc(S(=O)(=O)Nc4noc(C(C)(C)C)c4Br)cc3C2)cn1` [Example 41, N-(4-bromo-5-(tert-butyl)isoxazol-3-yl)-2-((6-propylpyridin-3-yl)methyl)-1,2,3,4-tetrahydroisoquinoline-7-sulfonamide] the value was 6.8 nM; for `CCc1ccc([C@@H](C)N2CCc3ccc(S(=O)(=O)Nc4noc(C(C)(C)C)c4C)cc3C2)cn1` [Example 42, (R)—N-(5-(tert-butyl)-4-methylisoxazol-3-yl)-2-(1-(6-ethylpyridin-3-yl)ethyl)-1,2,3,4-tetrahydroisoquinoline-7-sulfonamide], 8.2 nM; for `CCCc1ccc([C@@H](C)N2CCc3ccc(S(=O)(=O)Nc4noc(C(C)(C)C)c4Br)cc3C2)cn1` [Example 43, (R)—N-(4-bromo-5-(tert-butyl)isoxazol-3-yl)-2-(1-(6-propylpyridin-3-yl)ethyl)-1,2,3,4-tetrahydroisoquinoline-7-sulfonamide], 1.6 nM.
In the case of `CC(C)(C)c1onc(NS(=O)(=O)c2cnc3c(c2)CN(Cc2cc(F)cc(F)c2)CC3)c1Br` [Example 44, N-(4-bromo-5-(tert-butyl)isoxazol-3-yl)-6-(3,5-difluorobenzyl)-5,6,7,8-tetrahydro-1,6-naphthyridine-3-sulfonamide Trifluoroacetate] it was 118 nM; in that of `CCCc1cnc(NS(=O)(=O)c2ccc3c(c2)CN([C@H](C)c2ccc(OCC(F)(F)F)nc2)CC3)cn1` [Example 45, 7-(N-(5-propylpyrazin-2-yl)sulfamoyl)-2-((R)-1-(6-(2,2,2-trifluoroethoxy)pyridin-3-yl)ethyl)-1,2,3,4-tetrahydroisoquinolin-2-ium 2,2,2-trifluoroacetate], 7.3 nM.
Molecule `CCc1cnc(NS(=O)(=O)c2ccc3c(c2)CN([C@H](C)c2ccc(OCC(F)F)nc2)CC3)cn1` [Example 46, 2-((R)-1-(6-(2,2-difluoroethoxy)pyridin-3-yl)ethyl)-7-(N-(5-ethylpyrazin-2-yl)sulfamoyl)-1,2,3,4-tetrahydroisoquinolin-2-ium 2,2,2-trifluoroacetate] showed a concentration for half-maximal inhibition (IC50) of 12.7 nM.
For the molecule `CC(C)Nc1cnc(NS(=O)(=O)c2ccc3c(c2)CN([C@H](C)c2ccc(OCC(F)(F)F)nc2)CC3)cn1` [Example 47, 7-(N-(5-(isopropylamino)pyrazin-2-yl)sulfamoyl)-2-((R)-1-(6-(2,2,2-trifluoroethoxy)pyridin-3-yl)ethyl)-1,2,3,4-tetrahydroisoquinolin-2-ium 2,2,2-trifluoroacetate], half-maximal inhibition (IC50) was put at 13.9 nM. The IC50 values of the last two molecules are within 1.5-fold of each other.
For `COCCOc1ccc([C@@H](C)N2CCc3ccc(S(=O)(=O)Nc4cnc(C5CC5)cn4)cc3C2)cn1` [Example 48, 7-(N-(5-cyclopropylpyrazin-2-yl)sulfamoyl)-2-((R)-1-(6-(2-methoxyethoxy)pyridin-3-yl)ethyl)-1,2,3,4-tetrahydroisoquinolin-2-ium 2,2,2-trifluoroacetate] the value was 21.3 nM.
For `COc1ccc(NS(=O)(=O)c2ccc3c(c2)CN([C@H](C)c2ccc(OCC(F)(F)F)nc2)CC3)nn1` [Example 49, (R)—N-(6-methoxypyridazin-3-yl)-2-(1-(6-(2,2,2-trifluoroethoxy)pyridin-3-yl)ethyl)-1,2,3,4-tetrahydroisoquinoline-7-sulfonamide] the value was 8.7 nM; for `C[C@H](c1ccc(OCC(F)(F)F)nc1)N1CCc2ccc(S(=O)(=O)Nc3ccc(C(C)(C)C)nn3)cc2C1` [Example 50, 7-(N-(6-(tert-butyl)pyridazin-3-yl)sulfamoyl)-2-((R)-1-(6-(2,2,2-trifluoroethoxy)pyridin-3-yl)ethyl)-1,2,3,4-tetrahydroisoquinolin-2-ium 2,2,2-trifluoroacetate], 3.8 nM.

The IC50 is the point on the concentration scale where inhibition reaches its midpoint. A higher IC50 goes with weaker potency in that assay.

The values above are taken from patent publication US10065945B2, “Isoquinoline derivatives as MGAT2 inhibitors” (Merck Sharp & Dohme Corp., priority 2014, dated 2018).
